Like-named read-outs stand apart in the source and are kept apart here.
How the values were obtained:
Assay in all cases: KINOMEscan (ScanMAX) kinase profiling
Assay type in all cases: binding
panel of 468 kinases [1] = biological target: T1, panel of 468 kinases (Homo sapiens, UniProt P11802); conditions: 1 μM, read-out: % control
T1 construct: purchased KINOMEscan (ScanMAX) service

panel of 468 kinases [2] = biological target: T2, panel of 468 kinases (Homo sapiens, UniProt P17612); conditions: PKAC-alpha; 1 μM; read-out: % control
T2 construct: purchased KINOMEscan (ScanMAX) service

panel of 468 kinases [3] = biological target: T3, panel of 468 kinases (Homo sapiens, UniProt P17948); conditions: FLT1; 1 μM; read-out: % control
T3 construct: purchased KINOMEscan (ScanMAX) service
T3 sequence (P17948 27-1338): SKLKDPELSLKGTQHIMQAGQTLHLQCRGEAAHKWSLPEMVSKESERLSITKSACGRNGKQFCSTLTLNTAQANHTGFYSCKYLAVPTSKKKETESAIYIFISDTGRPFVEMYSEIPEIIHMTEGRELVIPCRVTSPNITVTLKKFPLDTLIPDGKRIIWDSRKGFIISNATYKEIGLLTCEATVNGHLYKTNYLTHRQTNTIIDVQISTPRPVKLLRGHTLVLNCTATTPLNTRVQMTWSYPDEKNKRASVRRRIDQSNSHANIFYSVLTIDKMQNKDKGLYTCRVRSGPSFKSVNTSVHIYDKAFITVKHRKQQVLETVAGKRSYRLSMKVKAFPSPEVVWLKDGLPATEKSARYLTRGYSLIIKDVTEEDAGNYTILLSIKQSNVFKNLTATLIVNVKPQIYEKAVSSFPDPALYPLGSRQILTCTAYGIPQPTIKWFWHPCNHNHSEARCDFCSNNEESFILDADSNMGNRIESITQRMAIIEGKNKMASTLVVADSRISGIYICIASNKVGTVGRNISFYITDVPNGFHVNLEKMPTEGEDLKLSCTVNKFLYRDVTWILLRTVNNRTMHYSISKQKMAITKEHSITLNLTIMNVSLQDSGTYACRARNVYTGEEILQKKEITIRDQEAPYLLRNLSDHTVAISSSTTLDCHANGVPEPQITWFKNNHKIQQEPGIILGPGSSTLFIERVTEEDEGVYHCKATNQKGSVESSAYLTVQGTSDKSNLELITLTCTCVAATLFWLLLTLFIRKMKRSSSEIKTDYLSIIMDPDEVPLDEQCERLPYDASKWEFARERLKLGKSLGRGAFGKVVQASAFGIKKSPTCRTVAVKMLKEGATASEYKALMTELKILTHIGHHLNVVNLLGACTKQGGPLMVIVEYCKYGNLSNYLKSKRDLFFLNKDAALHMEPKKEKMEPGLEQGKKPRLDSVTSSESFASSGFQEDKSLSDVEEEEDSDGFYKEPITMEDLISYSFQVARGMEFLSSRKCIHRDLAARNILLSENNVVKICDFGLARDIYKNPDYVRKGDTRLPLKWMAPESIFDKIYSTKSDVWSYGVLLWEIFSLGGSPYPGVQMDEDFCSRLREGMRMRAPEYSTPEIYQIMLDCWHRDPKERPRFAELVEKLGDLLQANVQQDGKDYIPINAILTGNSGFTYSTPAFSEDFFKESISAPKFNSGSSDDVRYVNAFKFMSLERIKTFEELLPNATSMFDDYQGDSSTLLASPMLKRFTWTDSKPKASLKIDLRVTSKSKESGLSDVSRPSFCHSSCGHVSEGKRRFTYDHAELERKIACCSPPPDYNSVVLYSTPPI

panel of 468 kinases [4] = biological target: T4, panel of 468 kinases (Homo sapiens, UniProt P21127); conditions: CDC2L1; 1 μM; read-out: % control
T4 construct: purchased KINOMEscan (ScanMAX) service

panel of 468 kinases [5] = biological target: T5, panel of 468 kinases (Homo sapiens, UniProt P57059); conditions: SIK; 1 μM; read-out: % control
T5 construct: purchased KINOMEscan (ScanMAX) service
T5 sequence (P57059 whole entry): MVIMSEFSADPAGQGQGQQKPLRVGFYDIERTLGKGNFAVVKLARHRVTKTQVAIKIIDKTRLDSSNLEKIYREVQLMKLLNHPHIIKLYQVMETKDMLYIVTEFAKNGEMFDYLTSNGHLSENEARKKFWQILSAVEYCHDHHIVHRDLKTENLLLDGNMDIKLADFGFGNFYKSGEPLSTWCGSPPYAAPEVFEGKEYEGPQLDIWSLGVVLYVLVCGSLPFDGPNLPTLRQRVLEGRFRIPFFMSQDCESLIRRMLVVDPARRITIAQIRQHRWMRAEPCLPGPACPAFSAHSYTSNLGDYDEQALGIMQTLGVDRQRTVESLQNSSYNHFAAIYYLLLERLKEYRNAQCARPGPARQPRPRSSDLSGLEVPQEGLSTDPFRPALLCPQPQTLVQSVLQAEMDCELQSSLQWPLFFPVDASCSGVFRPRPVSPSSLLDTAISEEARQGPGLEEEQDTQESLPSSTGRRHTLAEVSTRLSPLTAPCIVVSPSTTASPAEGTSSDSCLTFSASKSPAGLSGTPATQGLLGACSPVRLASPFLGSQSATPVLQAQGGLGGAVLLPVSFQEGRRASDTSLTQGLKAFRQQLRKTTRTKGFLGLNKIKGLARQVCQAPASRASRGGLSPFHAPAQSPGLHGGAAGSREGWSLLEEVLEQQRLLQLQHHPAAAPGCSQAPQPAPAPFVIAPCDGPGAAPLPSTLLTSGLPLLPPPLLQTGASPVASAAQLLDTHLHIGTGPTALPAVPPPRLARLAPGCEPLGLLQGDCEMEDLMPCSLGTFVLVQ

panel of 468 kinases [6] = biological target: T6, panel of 468 kinases (Homo sapiens, UniProt P78362); conditions: SRPK2; 1 μM; read-out: % control
T6 construct: purchased KINOMEscan (ScanMAX) service
T6 sequence (P78362 whole entry): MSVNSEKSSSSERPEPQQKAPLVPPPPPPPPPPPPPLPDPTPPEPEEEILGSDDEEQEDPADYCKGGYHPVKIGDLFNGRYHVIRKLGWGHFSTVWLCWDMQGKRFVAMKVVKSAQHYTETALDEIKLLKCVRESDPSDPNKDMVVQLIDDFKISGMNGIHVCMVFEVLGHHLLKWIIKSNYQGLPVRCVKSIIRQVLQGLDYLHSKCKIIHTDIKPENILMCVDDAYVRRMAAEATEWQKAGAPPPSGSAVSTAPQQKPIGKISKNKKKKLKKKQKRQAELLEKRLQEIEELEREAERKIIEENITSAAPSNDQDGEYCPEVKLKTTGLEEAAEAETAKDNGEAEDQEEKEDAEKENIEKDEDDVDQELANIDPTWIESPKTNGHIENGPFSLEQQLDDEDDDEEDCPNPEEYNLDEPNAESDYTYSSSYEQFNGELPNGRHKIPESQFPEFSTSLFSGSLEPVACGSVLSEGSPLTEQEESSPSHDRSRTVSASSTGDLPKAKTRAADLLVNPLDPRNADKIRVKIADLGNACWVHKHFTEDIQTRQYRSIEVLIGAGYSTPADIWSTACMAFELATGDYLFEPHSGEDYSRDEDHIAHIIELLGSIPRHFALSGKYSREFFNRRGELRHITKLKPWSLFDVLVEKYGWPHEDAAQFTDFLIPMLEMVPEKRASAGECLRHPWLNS

panel of 468 kinases [7] = biological target: T7, panel of 468 kinases (Homo sapiens, UniProt Q02156); conditions: PRKCE; 1 μM; read-out: % control
T7 construct: purchased KINOMEscan (ScanMAX) service
T7 sequence (Q02156 1-737): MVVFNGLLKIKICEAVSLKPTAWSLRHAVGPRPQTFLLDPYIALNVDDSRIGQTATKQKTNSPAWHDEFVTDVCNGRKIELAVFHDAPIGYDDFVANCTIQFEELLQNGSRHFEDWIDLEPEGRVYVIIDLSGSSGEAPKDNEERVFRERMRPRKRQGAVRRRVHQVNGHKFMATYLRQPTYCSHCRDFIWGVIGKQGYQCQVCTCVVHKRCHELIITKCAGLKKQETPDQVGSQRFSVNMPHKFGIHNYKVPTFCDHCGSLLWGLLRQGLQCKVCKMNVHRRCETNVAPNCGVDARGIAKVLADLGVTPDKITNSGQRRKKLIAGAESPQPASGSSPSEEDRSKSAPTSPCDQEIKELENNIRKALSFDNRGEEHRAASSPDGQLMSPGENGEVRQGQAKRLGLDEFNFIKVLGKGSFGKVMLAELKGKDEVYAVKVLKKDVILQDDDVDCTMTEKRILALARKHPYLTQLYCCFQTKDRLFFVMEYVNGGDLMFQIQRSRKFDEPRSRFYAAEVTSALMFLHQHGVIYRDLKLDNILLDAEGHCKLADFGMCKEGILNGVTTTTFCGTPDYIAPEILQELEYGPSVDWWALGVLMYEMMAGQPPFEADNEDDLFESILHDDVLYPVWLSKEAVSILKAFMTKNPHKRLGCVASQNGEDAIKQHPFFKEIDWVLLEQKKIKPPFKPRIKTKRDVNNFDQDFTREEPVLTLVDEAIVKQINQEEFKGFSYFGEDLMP

panel of 468 kinases [8] = biological target: T8, panel of 468 kinases (Homo sapiens, UniProt Q8TDR2); conditions: STK35; 1 μM; read-out: % control
T8 construct: purchased KINOMEscan (ScanMAX) service
T8 sequence (Q8TDR2 whole entry): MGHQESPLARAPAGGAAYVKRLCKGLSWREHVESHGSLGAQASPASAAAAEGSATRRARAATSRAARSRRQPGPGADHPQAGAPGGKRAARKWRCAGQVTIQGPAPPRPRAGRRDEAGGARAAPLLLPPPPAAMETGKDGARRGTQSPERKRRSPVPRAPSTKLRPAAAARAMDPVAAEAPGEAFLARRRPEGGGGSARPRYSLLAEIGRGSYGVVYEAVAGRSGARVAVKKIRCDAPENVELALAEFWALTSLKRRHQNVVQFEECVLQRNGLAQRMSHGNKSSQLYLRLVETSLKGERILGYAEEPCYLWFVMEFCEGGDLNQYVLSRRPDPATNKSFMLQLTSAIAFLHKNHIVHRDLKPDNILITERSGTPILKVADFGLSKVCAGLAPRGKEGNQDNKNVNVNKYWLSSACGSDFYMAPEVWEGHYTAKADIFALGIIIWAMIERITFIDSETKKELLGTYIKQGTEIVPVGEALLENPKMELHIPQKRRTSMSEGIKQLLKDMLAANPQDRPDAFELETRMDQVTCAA

panel of 468 kinases [9] = biological target: T9, panel of 468 kinases (Homo sapiens, UniProt Q99558); conditions: NIK; 1 μM; read-out: % control
T9 construct: purchased KINOMEscan (ScanMAX) service
T9 sequence (Q99558 whole entry): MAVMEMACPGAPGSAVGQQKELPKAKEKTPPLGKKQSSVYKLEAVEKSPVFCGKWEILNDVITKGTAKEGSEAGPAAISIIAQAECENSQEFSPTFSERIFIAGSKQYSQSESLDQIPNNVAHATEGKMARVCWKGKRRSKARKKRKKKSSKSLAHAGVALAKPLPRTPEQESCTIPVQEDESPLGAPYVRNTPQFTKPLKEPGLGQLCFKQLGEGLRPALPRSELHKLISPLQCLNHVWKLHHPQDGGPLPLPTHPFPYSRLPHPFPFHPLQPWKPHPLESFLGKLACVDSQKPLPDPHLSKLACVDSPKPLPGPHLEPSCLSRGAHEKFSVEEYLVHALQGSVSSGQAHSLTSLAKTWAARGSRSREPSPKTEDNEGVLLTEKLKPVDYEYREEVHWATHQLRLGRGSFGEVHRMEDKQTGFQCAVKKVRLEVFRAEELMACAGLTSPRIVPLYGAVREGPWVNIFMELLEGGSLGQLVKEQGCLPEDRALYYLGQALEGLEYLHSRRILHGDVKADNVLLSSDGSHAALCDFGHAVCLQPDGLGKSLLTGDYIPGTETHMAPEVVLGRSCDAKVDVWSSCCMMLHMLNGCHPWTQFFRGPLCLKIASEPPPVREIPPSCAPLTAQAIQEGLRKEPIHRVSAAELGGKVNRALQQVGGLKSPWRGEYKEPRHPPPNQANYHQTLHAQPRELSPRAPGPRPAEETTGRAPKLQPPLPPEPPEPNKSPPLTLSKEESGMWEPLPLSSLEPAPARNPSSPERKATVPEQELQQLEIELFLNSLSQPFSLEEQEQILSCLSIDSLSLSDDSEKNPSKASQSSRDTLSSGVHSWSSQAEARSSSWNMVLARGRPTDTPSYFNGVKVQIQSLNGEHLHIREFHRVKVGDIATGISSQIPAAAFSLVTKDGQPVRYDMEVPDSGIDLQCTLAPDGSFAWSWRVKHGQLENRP

panel of 468 kinases [10] = biological target: T10, panel of 468 kinases (Homo sapiens, UniProt Q9BX84); conditions: TRPM6; 1 μM; read-out: % control
T10 construct: purchased KINOMEscan (ScanMAX) service

panel of 468 kinases [11] = biological target: T11, panel of 468 kinases (Homo sapiens, UniProt Q9BZL6); conditions: PRKD2; 1 μM; read-out: % control
T11 construct: purchased KINOMEscan (ScanMAX) service
T11 sequence (Q9BZL6 1-878): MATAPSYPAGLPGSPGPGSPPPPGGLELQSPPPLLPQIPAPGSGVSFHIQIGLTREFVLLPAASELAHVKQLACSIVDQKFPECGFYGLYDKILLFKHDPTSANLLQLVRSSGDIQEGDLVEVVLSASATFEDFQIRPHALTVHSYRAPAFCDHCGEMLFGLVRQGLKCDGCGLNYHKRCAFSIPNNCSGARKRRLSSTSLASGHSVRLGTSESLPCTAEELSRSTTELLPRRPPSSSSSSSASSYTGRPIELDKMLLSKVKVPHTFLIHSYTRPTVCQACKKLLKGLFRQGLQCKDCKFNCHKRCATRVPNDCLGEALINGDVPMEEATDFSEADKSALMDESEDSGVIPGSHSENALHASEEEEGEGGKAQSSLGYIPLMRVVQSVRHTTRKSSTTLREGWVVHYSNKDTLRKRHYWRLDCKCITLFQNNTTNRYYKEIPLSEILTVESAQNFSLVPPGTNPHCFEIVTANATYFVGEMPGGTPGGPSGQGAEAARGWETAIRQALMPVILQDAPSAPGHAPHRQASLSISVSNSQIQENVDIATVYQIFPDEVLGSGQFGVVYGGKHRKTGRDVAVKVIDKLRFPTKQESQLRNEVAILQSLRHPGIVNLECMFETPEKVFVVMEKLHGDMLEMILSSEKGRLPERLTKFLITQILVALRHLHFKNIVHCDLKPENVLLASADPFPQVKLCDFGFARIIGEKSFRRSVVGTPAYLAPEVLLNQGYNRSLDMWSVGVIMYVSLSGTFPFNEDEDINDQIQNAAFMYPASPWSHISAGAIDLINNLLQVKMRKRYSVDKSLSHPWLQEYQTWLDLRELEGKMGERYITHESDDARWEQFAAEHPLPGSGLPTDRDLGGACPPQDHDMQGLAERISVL

panel of 468 kinases [12] = biological target: T12, panel of 468 kinases (Homo sapiens, UniProt Q9Y6E0); conditions: MST3; 1 μM; read-out: % control
T12 construct: purchased KINOMEscan (ScanMAX) service
T12 sequence (Q9Y6E0 whole entry): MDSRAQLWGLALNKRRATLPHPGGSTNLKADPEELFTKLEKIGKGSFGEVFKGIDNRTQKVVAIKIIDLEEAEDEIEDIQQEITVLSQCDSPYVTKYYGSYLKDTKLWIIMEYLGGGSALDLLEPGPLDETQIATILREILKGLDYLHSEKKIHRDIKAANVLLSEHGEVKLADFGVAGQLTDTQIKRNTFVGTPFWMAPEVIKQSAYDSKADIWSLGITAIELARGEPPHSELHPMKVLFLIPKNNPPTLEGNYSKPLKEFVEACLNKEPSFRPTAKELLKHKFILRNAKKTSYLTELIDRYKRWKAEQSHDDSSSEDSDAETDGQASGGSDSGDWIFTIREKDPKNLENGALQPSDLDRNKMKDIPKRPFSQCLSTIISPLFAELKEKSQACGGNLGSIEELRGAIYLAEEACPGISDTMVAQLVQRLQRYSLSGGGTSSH

T1 sequence (P11802 whole entry): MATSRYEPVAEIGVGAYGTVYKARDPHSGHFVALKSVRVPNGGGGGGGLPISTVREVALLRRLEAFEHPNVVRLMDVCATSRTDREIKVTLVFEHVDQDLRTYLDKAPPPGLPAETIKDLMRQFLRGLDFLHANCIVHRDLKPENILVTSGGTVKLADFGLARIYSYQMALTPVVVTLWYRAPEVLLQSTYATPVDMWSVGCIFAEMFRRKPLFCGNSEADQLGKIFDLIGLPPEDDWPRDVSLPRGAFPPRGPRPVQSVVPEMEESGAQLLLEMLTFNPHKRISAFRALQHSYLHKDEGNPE

CNc1nc(Nc2ccc(S(=O)(=O)N3CCC(N4CCOCC4)CC3)cc2OC)nc2[nH]cc(Cl)c12 [Compound 12, 5-chloro-N2-(2-methoxy-4-((4-morpholinopiperidin-1-yl)sulfonyl)phenyl)-N4-methyl-7H-pyrrolo[2,3-d]pyrimidine-2,4-diamine]
remaining binding at 1 µM (panel of 468 kinases [1]; CDK4-cyclinD1): 74%
remaining binding at 1 µM (panel of 468 kinases [1]; CDK4-cyclinD3): 100%
remaining binding at 1 µM (panel of 468 kinases [1]; CDK4): 68%
remaining binding at 1 µM (panel of 468 kinases [2]): 100%
remaining binding at 1 µM (panel of 468 kinases [3]): 100%
remaining binding at 1 µM (panel of 468 kinases [4]): 100%
remaining binding at 1 µM (panel of 468 kinases [5]): 100%
remaining binding at 1 µM (panel of 468 kinases [6]): 100%
remaining binding at 1 µM (panel of 468 kinases [7]): 62%
remaining binding at 1 µM (panel of 468 kinases [8]): 100%
remaining binding at 1 µM (panel of 468 kinases [9]): 9.2%
remaining binding at 1 µM (panel of 468 kinases [10]): 79%
remaining binding at 1 µM (panel of 468 kinases [11]): 37%
remaining binding at 1 µM (panel of 468 kinases [12]): 97%

CNc1nc(Nc2ccc(C(=O)N3CCC(N4CCOCC4)CC3)c3c2OCO3)nc2[nH]cc(Cl)c12 [Compound 75, (7-((5-chloro-4-(methylamino)-7H-pyrrolo[2,3-d]pyrimidin-2-yl)amino)benzo[d][1,3]dioxol-4-yl)(4-morpholinopiperidin-1-yl)methanone]
remaining binding at 1 µM (panel of 468 kinases [1]; CDK4-cyclinD1): 81%
remaining binding at 1 µM (panel of 468 kinases [1]; CDK4-cyclinD3): 100%
remaining binding at 1 µM (panel of 468 kinases [1]; CDK4): 80%
remaining binding at 1 µM (panel of 468 kinases [2]): 100%
remaining binding at 1 µM (panel of 468 kinases [3]): 73%
remaining binding at 1 µM (panel of 468 kinases [4]): 100%
remaining binding at 1 µM (panel of 468 kinases [5]): 100%
remaining binding at 1 µM (panel of 468 kinases [6]): 95%
remaining binding at 1 µM (panel of 468 kinases [7]): 73%
remaining binding at 1 µM (panel of 468 kinases [8]): 100%
remaining binding at 1 µM (panel of 468 kinases [9]): 0%
remaining binding at 1 µM (panel of 468 kinases [10]): 85%
remaining binding at 1 µM (panel of 468 kinases [11]): 2.2%
remaining binding at 1 µM (panel of 468 kinases [12]): 98%

CNc1nc(Nc2ccc(P3(=O)CCN(C4CCOCC4)CC3)cc2OC)nc2[nH]cc(Cl)c12 [Compound 77, 4-(4-((5-chloro-4-(methylamino)-7H-pyrrolo[2,3-d]pyrimidin-2-yl)amino)-3-methoxyphenyl)-1-(tetrahydro-2H-pyran-4-yl)-1,4-azaphosphinane 4-oxide]
remaining binding at 1 µM (panel of 468 kinases [1]; CDK4-cyclinD1): 87%
remaining binding at 1 µM (panel of 468 kinases [1]; CDK4-cyclinD3): 100%
remaining binding at 1 µM (panel of 468 kinases [1]; CDK4): 71%
remaining binding at 1 µM (panel of 468 kinases [2]): 100%
remaining binding at 1 µM (panel of 468 kinases [3]): 100%
remaining binding at 1 µM (panel of 468 kinases [4]): 100%
remaining binding at 1 µM (panel of 468 kinases [5]): 100%
remaining binding at 1 µM (panel of 468 kinases [6]): 84%
remaining binding at 1 µM (panel of 468 kinases [7]): 87%
remaining binding at 1 µM (panel of 468 kinases [8]): 100%
remaining binding at 1 µM (panel of 468 kinases [9]): 16%
remaining binding at 1 µM (panel of 468 kinases [10]): 88%
remaining binding at 1 µM (panel of 468 kinases [11]): 14%
remaining binding at 1 µM (panel of 468 kinases [12]): 88%
